Assay results reported in patent US20250177363A1, “SUBSTITUTED IMIDAZOPYRIDINYL COMPOUNDS USEFUL AS INHIBITORS OF TLR9” (Bristol-Myers Squibb Company, priority 2022, published 2025).

Columns and labels:
Assay type in all cases: cell-based
human TLR7 = biological target: T1, human TLR7 (Homo sapiens, UniProt Q9NYK1); experiment: TLR7 inhibition reporter assay (HEK-Blue, SEAP); conditions: HEK-Blue cells overexpressing human TLR7, ligand gardiquimod 2.5 μM, 22 hour incubation
T1 construct: host or cells: HEK-Blue cells
T1 sequence (Q9NYK1 27-1049): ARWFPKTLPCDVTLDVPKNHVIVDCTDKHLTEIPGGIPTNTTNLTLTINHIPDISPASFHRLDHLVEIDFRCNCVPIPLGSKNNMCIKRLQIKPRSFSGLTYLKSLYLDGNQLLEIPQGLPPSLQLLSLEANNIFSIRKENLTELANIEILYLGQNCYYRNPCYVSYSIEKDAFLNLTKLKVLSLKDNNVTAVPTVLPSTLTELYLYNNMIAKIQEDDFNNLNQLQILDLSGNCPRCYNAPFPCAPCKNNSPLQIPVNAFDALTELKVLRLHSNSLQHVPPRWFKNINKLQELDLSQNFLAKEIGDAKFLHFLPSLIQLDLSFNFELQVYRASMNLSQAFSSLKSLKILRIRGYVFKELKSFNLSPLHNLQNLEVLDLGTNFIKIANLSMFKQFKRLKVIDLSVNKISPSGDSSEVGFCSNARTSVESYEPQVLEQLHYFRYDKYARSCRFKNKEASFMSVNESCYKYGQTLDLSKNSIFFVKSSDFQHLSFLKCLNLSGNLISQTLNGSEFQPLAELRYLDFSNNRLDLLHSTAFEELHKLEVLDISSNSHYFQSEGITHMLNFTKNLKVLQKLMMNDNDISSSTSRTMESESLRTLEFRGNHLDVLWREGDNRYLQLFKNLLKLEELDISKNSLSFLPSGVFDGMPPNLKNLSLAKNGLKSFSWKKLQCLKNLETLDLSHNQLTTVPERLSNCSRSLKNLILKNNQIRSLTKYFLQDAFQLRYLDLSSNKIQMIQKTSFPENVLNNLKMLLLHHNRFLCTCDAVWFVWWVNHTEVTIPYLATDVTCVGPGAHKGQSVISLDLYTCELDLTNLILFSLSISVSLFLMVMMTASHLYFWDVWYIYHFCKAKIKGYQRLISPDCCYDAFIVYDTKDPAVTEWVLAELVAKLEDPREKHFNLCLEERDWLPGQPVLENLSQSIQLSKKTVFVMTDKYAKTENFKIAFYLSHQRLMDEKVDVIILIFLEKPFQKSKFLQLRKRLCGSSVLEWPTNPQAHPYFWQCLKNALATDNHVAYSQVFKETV
Procedure: (§1) TLR7/8/9 Inhibition Reporter Assays
(§2) HEK-Blue™-cells (Invivogen) overexpressing human TLR7. TLR8 or TLR9 receptors were used for screening inhibitors of these receptors using an inducible SEAP (secreted embryonic alkaline phosphatase) reporter gene under the control of the IFN-β minimal promoter fused to five NF-κB and AP-1-binding sites. Cells are seeded into Greiner 384 well plates (15000 cells per well) that are pre dispensed (by ECHO) with testing compounds in DMSO to yield a final dose response concentration range of 0.85 nM-50 μM. After a 60 minute compound pre-treatment in 37 degree incubator, the cells are then stimulated with a TLR7 ligand (gardiquimod at a final concentration of 2.5 μM), TLR8 ligand (R848 at a final concentration of 14.25 μM) or TLR9 ligand (ODN2006 at a final concentration of 200 nM) to activate NF-κB and AP-1 which induce the production of SEAP. After a 22 hour incubation at 37° C., 5% CO2, SEAP levels are determined with the addition of HEK-Blue™ Detection reagent (Invivogen), a cell culture medium that allows for detection of SEAP, according to manufacturer's specifications. The percent inhibition is determined as the % reduction in the HEK-Blue signal present in […].

human TLR8 = biological target: T2, human TLR8 (Homo sapiens, UniProt Q9NR97); experiment: TLR8 inhibition reporter assay (HEK-Blue, SEAP); conditions: HEK-Blue cells overexpressing human TLR8, ligand R848 14.25 μM, 22 hour incubation
T2 construct: host or cells: HEK-Blue cells
T2 sequence (Q9NR97 27-1041): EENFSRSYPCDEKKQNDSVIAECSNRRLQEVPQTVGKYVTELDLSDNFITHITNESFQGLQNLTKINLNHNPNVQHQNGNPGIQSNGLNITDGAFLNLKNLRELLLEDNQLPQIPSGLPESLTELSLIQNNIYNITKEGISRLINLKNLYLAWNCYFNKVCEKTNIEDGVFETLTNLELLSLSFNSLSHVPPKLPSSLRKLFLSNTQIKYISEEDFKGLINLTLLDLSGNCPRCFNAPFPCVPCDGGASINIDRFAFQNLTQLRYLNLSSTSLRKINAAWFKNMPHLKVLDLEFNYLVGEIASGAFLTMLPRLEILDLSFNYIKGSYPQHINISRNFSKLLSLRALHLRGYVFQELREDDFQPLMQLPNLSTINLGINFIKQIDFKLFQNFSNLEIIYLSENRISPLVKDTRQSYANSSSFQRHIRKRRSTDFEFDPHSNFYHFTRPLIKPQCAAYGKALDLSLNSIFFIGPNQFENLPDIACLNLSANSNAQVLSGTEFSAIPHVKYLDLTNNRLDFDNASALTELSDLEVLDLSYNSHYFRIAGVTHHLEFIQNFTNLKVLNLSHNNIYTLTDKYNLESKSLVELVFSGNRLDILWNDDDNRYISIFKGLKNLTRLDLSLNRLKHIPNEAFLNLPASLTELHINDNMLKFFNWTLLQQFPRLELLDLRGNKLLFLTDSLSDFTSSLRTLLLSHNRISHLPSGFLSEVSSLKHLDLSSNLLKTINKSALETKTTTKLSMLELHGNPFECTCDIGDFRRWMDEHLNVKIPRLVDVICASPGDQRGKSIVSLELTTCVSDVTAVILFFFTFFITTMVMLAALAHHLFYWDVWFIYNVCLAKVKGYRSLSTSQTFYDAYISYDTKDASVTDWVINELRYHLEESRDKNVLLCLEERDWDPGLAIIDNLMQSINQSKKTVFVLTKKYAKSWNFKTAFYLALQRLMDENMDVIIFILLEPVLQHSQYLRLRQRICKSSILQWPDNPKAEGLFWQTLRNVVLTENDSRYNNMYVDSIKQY
Procedure: as §1, §2

human TLR9 = biological target: T3, human TLR9 (Homo sapiens, UniProt Q9NR96); experiment: TLR9 inhibition reporter assay (HEK-Blue, SEAP); conditions: HEK-Blue cells overexpressing human TLR9, ligand ODN2006 200 nM, 22 hour incubation
T3 construct: host or cells: HEK-Blue cells
T3 sequence (Q9NR96 26-1032): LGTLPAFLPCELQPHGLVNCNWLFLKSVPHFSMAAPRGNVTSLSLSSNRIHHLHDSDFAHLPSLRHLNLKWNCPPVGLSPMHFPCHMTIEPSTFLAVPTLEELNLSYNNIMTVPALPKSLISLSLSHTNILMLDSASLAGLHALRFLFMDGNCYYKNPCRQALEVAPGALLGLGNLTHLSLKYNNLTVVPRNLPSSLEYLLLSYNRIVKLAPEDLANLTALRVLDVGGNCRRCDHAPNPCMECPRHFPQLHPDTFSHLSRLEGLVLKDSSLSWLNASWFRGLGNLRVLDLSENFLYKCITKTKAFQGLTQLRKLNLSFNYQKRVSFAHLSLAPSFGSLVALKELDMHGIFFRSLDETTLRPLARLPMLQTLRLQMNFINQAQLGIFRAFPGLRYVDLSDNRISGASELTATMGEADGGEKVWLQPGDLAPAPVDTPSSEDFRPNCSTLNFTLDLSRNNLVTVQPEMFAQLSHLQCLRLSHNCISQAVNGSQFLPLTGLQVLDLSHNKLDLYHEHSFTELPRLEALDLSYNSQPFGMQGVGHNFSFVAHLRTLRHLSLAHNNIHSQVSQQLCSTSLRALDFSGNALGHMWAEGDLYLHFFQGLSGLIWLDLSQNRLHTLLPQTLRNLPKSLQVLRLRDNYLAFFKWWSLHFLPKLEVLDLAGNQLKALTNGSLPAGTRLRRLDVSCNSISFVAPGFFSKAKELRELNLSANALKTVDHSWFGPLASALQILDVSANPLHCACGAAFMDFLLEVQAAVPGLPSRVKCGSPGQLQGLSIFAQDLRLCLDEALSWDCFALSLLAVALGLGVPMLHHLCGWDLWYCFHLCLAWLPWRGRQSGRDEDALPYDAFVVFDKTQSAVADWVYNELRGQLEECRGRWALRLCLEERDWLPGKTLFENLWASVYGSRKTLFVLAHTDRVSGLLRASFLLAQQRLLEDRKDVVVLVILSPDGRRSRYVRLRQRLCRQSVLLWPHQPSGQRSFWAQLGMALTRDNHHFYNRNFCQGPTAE
Procedure: as §1, §2

Row | SMILES | IC50 (human TLR7) | IC50 (human TLR8) | IC50 (human TLR9)
1 | Cc1cc(C2CCN(C3CC4CCC(C3)N4C(C)C)CC2)nc2c1nc(-c1ccc(S(C)(=O)=O)cc1)n2C (single isomer, unassigned) [Example 26, 5-(1-(8-isopropyl-8-azabicyclo[3.2.1]octan-3-yl)piperidin-4-yl)-3,7-dimethyl-2-(4-(methylsulfonyl)phenyl)-3H-imidazo[4,5-b]pyridine] | 10000 nM | > 50000 nM | 58 nM
2 | Cc1cc(C2CCN(C3CC4CCC(C3)N4C(C)C)CC2)nc2c1nc(-c1ccc(S(C)(=O)=O)cc1)n2C (single isomer, unassigned) [Example 27, 5-(1-(8-isopropyl-8-azabicyclo[3.2.1]octan-3-yl)piperidin-4-yl)-3,7-dimethyl-2-(4-(methylsulfonyl)phenyl)-3H-imidazo[4,5-b]pyridine] | 3700 nM | 24000 nM | 300 nM
3 | Cc1cc(C2CCN(C3CC4CCC(C3)N4CC(C)C)CC2)nc2c1nc(-c1ccc(S(C)(=O)=O)cc1)n2C (single isomer, unassigned) [Example 28, 5-(1-(8-isobutyl-8-azabicyclo[3.2.1]octan-3-yl)piperidin-4-yl)-3,7-dimethyl-2-(4-(methylsulfonyl)phenyl)-3H-imidazo[4,5-b]pyridine] | 1400 nM | > 50000 nM | 79 nM
4 | Cc1cc(C2CCN(C3CC4CCC(C3)N4CC(C)C)CC2)nc2c1nc(-c1ccc(S(C)(=O)=O)cc1)n2C (single isomer, unassigned) [Example 29, 5-(1-(8-isobutyl-8-azabicyclo[3.2.1]octan-3-yl)piperidin-4-yl)-3,7-dimethyl-2-(4-(methylsulfonyl)phenyl)-3H-imidazo[4,5-b]pyridine] | – | – | 550 nM
5 | Cc1cc(-c2ccc(CN3CC4(C3)CN(CC(C)C)C4)cc2)nc2c1nc(-c1ccc(S(C)(=O)=O)cc1)n2C1CC1 [Example 4, 3-cyclopropyl-5-(4-((6-isobutyl-2,6-diazaspiro[3.3]heptan-2-yl)methyl)phenyl)-7-methyl-2-(4-(methylsulfonyl)phenyl)-3H-imidazo[4,5-b]pyridine] | 2600 nM | – | 71 nM
6 | Cc1cc(-c2ccc(CN3CC4(C3)CN(C3COC3)C4)cc2)nc2c1nc(-c1ccc(S(C)(=O)=O)cc1)n2C1CC1 [Example 6, 3-cyclopropyl-7-methyl-2-(4-(methylsulfonyl)phenyl)-5-(4-((6-(oxetan-3-yl)-2,6-diazaspiro[3.3]heptan-2-yl)methyl)phenyl)-3H-imidazo[4,5-b]pyridine] | 15000 nM | – | 730 nM
7 | COc1ccc(-c2nc3ncc(C4CCN(C5CCN(CC(C)C)CC5)CC4)cc3[nH]2)cc1OC [Example 12, 2-(3,4-dimethoxyphenyl)-6-(1′-isobutyl-[1,4′-bipiperidin]-4-yl)-1H-imidazo[4,5-b]pyridine] | – | – | 74 nM
8 | COc1cc(-c2nc3c(C)cc(-c4ccc(N5CCN(C(C)C)CC5)cc4)nc3n2C)cn2ncnc12 [Example 45, 5-(4-(4-isopropylpiperazin-1-yl)phenyl)-2-(8-methoxy-[1,2,4]triazolo[1,5-a]pyridin-6-yl)-3,7-dimethyl-3H-imidazo[4,5-b]pyridine] | 5800 nM | – | 140 nM
9 | COc1ccc(-c2nc3ncc(-c4ccc(N5CCN(C(C)C)CC5)cc4)cc3n2C2CC2)cc1OC [Example 50, 1-cyclopropyl-2-(3,4-dimethoxyphenyl)-6-(4-(4-isopropylpiperazin-1-yl)phenyl)-1H-imidazo[4,5-b]pyridine] | – | 3400 nM | 320 nM
10 | CS(=O)(=O)c1ccc(-c2nc3ccc(-c4ccc(N5CCN(CCCN6CCOCC6)CC5)cc4)nc3n2C2CC2)cc1 [Example 56, 4-(3-(4-(4-(3-cyclopropyl-2-(4-(methylsulfonyl)phenyl)-3H-imidazo[4,5-b]pyridin-5-yl)phenyl)piperazin-1-yl)propyl) morpholine] | > 50000 nM | – | 280 nM
11 | COc1ccc(-c2nc3c(C)cc(-c4ccc(N5CC6(C5)CN(C(C)C)C6)cc4)nc3n2C)cc1OC [Example 59, 2-(3,4-dimethoxyphenyl)-5-(4-(6-isopropyl-2,6-diazaspiro[3.3]heptan-2-yl)phenyl)-3,7-dimethyl-3H-imidazo[4,5-b]pyridine] | 1100 nM | – | 860 nM
